Data: patent US6723702B2, “Use of relaxin treat diseases related to vasoconstriction” (RAS Medical, Inc., priority 2000, dated 2004)

Assays:
conscious rats = test: Acute infusion of L-NAME during chronic infusion of purified porcine RLX; assay type: in vivo, rat; settings: RLX 4 μg/hour s.c. day 5
Protocol: At least 7 days after the implantation of vascular and bladder catheters, osmotic minipumps containing either porcine RLX (4 μg/hour) or vehicle (Ringer's solution) were implanted in intact, female rats (n=7 and 6 rats, respectively). Renal function and MAP were measured on day 5 of relaxin infusion (three 30-minute urine and midpoint blood collections). Next, an infusion of L-NAME (2 μg/minute, a substrate competitive inhibitor of NO synthase) was administered intravenously (i.v.) by infusion pump (Model 200, KD Scientific, Boston, Mass.). Four 1-hour urine collections with midpoint blood samples were collected for the assessment of GFR, ERPF, and ERVR during the L-NAME administration. Identical procedures were performed on additional animals chronically administered porcine RLX (n=5) or vehicle (n=5), except that ANG II (3 ng/minute) was infused rather than L-NAME. Finally, another four, age-matched control rats were administered Ringer's solution instead of either L-NAME or ANG II on day 5 of porcine RLX infusion.
MAP, GFR, ERPF, and ERVR were measured at time zero (baseline), and at 60, 120, 180, and 240 minutes after administering L-NAME and either RLX or vehicle alone. Values represent the mean±SEM. L-NAME (Nω-nitro-L-arginine methyl ester) was infused at 2 μg/minute intravenously, and relaxin was administered at 4 μg/hour by osmotic minipump subcutaneously. There were 7 and 6 rats, respectively, in the RLX and vehicle groups. An asterisk denotes p<0.05; the symbol H denotes p<0.05 for RLX vs. vehicle.

rats = test: Metabolic cage studies; assay type: in vivo, rat
Protocol: Six rats were individually housed in Nalgene metabolism cages (Rodent Metabolism Cages for 150-300 g rats, VWR Scientific). Water and food were provided ad libidum. After 5-7 days of habituation, two baseline 24-hour urine collections were obtained. Then, an osmotic minipump containing purified porcine RLX was implanted (4 μg/hour). […] Food and water intake, as well as urinary flow rate were measured by gravimetric technique. The urinary excretion of sodium, cyclic guanosine monophosphate, and NOx were also determined. The measurements made during the two baseline collections were averaged, as were the measurements made during the three post-relaxin collections.
Plasma osmolality was measured using a freezing-point depression instrumentation osmometer (Model 3MO, Advanced Instruments, Needham Heights, Mass.). Plasma and urine IN and PAH were assayed by standard techniques. Urinary sodium concentration was measured by ion selective electrode (Sodium-Potassium Chemistry Module, Beckman Instruments, Inc., Brea, Calif.). Urinary cGMP was determined by specific radioimmunoassay as previously described. Conrad and Vernier (1989) Am. J. Physiol. 257:R847-R853. Urinary NOX was measured by reduction of nitrate to nitrite, the latter determined by the Griess reaction which produces a calorimetric product measured at 540 nm (Nitrate/Nitrite Colorimetric Assay Kit, Cayman Chemical, Ann Arbor, Mich.).

[1] = system: bFGF and VEGF protein staining, peri-infarct area of the heart; test: Rat LCAL model: immunohistochemical analysis of the peri-infarct area; assay type: in vivo
Protocol: Immunohistochemical analysis of the peri-infarct area of the heart was performed as follows. Transverse sections from paraffin embedded hearts were obtained at 3 levels. Sections were stained with H&E to assess neovascularization. Slides of heart sections were deparaffinized in xylene and washed with ethanol. Slides were then rinsed in sterile double distilled water before proceeding with antigen retrieval, as recommended by the antibody vendor (Biogenex). Sections were incubated for 30 minutes in 1.5% normal goat blocking serum (Biogenex, San Ramon, Calif.) and washed three times for 5 minutes each with PBS. Sections were then incubated with a monoclonal antibody against VEGF (VEGF-C1), or a polyclonal antibody against bFGF (FGF-2-147) (both at 5 μg/ml), before washing with PBS. Primary, and anti-goat or anti-rabbit secondary antibodies were purchased from Santa Cruz Biotechnology (Santa Cruz, Calif.). Sections were then incubated in multilink, a biotinylated goat anti-immunoglobulin for use with mouse, rabbit, guinea pig and rat primary antibodies (Biogenex) for 30 minutes at room temperature, followed by washing twice for 10 minutes each with PBS. Sections were labeled with peroxidase conjugated streptavidin for 20 minutes before finally washing twice for 5 minutes with PBS and air-drying). […]

[2] = system: rat aortic endothelial cells; test: 3H-thymidine uptake, rat endothelial cells; assay type: cell-based; settings: serum-free medium
Protocol: Endothelial cells were derived from explant cultures of human neonatal foreskin and rat aorta. Primary human endothelial cells from umbilical vein, aorta, and lung were purchased from Clonetics-BioWhittaker Corporation (San Diego, Calif.) and cultured according to vendor instructions. ^3H-thymidine uptake was performed, as previously described, in serum-free medium. Unemori et al. (1994) Exp. Cell Res. 21:166-171.
Relaxin was then assayed for the ability to induce proliferation of endothelial cells directly. Relaxin's potential mitogenic effect was tested on human primary umbilical vein, aortic, foreskin, and pulmonary endothelial cells, as well as rat aortic endothelial cells. […] Alterations in other aspects of endothelial cell phenotype that are believed to correlate with angiogenesis were also tested. Relaxin had no effect on collagen expression, judged by SDS-PAGE of ^3H-proline-labeled cellular proteins; or metalloproteinase or tissue inhibitor of metalloproteinase-1 secretion, assessed by gelatin zymography. […] Therefore, relaxin had no apparent effect directly on endothelial cells.

[3] = L-NAME 2 μg/minute i.v., 60 min
[4] = L-NAME 2 μg/minute i.v., 120 min
[5] = L-NAME 2 μg/minute i.v., 180 min
[6] = L-NAME 2 μg/minute i.v., 240 min

Work on “Porcine RLX: lyophilized, purified porcine relaxin (Sherwood and O'Byrne 1974), dissolved in Ringer's solution” yielded an ERPF (conscious rats; Baseline before L-NAME) of 10245, an ERVR (conscious rats; Baseline before L-NAME) of 6.96 and a GFR (conscious rats; Baseline before L-NAME) of 3050. For the same substance, the “MAP (mean arterial pressure)” value (conscious rats; Baseline before L-NAME) was 120, the ERPF (conscious rats; [3]) was 7520 and the ERVR (conscious rats; [3]) was 11.00. For the same substance, the GFR (conscious rats; [3]) was 2776, the “MAP (mean arterial pressure)” value (conscious rats; [3]) was 135 and the ERPF (conscious rats; [4]) was 7030. For the same substance, the ERVR (conscious rats; [4]) was 11.87, the GFR (conscious rats; [4]) was 2653 and the “MAP (mean arterial pressure)” value (conscious rats; [4]) was 136. The ERPF (conscious rats; [5]) was 6530, the ERVR (conscious rats; [5]) was 12.92 and the GFR (conscious rats; [5]) was 2498. For the same substance, the “MAP (mean arterial pressure)” value (conscious rats; [5]) was 136, the ERPF (conscious rats; [6]) was 5973 and the ERVR (conscious rats; [6]) was 14.13. The GFR (conscious rats; [6]) was 2392, the “MAP (mean arterial pressure)” value (conscious rats; [6]) was 139 and the Food intake (rats; Baseline) was 13.2 ± 1.0 g. For the same substance, the “Urinary NOx excretion” value (rats; Baseline) was 4.8 ± 0.5 μmole/24hours, the “Urinary cGMP excretion” value (rats; Baseline) was 32.2 ± 1.9 nmole/24 hours and the Urinay sodium excretion (rats; Baseline) was 438.8 ± 34.4 μEq/24hours. For the same substance, the Urine output (rats; Baseline) was 9.1 ± 1.7 ml/24 hours, the Water intake (rats; Baseline) was 19.1 ± 2.7 mL and the Food intake (rats; Day 2 of RLX 4 μg/hour s.c.) was 15.5 ± 1.5 g. The “Urinary NOx excretion” value (rats; Day 2 of RLX 4 μg/hour s.c.) was 6.0 ± 1.0 μmole/24hours, the “Urinary cGMP excretion” value (rats; Day 2 of RLX 4 μg/hour s.c.) was 26.5 ± 2.5 nmole/24 hours and the Urinay sodium excretion (rats; Day 2 of RLX 4 μg/hour s.c.) was 800.2 ± 77.2 μEq/24hours. The Urine output (rats; Day 2 of RLX 4 μg/hour s.c.) was 11.4 ± 2.2 ml/24 hours, the Water intake (rats; Day 2 of RLX 4 μg/hour s.c.) was 20.1 ± 3.4 mL and the Food intake (rats; Day 5 of RLX 4 μg/hour s.c.) was 16.7 ± 1.0 g. For the same substance, the “Urinary NOx excretion” value (rats; Day 5 of RLX 4 μg/hour s.c.) was 5.9 ± 0.7 μmole/24hours, the “Urinary cGMP excretion” value (rats; Day 5 of RLX 4 μg/hour s.c.) was 28.6 ± 3.8 nmole/24 hours and the Urinay sodium excretion (rats; Day 5 of RLX 4 μg/hour s.c.) was 477.8 ± 57.9 μEq/24hours. The Urine output (rats; Day 5 of RLX 4 μg/hour s.c.) was 8.8 ± 0.9 ml/24 hours, the Water intake (rats; Day 5 of RLX 4 μg/hour s.c.) was 23.6 ± 3.3 mL and the Food intake (rats; Post-relaxin day 4-18) was 15.3 ± 0.5 g. For the same substance, the “Urinary NOx excretion” value (rats; Post-relaxin day 4-18) was 6.1 ± 0.9 μmole/24hours, the “Urinary cGMP excretion” value (rats; Post-relaxin day 4-18) was 32.7 ± 3.8 nmole/24 hours and the Urinay sodium excretion (rats; Post-relaxin day 4-18) was 480.69 ± 54.4 μEq/24hours. The Urine output (rats; Post-relaxin day 4-18) was 9.1 ± 1.1 ml/24 hours and the Water intake (rats; Post-relaxin day 4-18) was 19.1 ± 2.6 mL.
With “rhRLX: recombinant human relaxin, identical in amino acid sequence to the product of the human H2 gene; A chain of 24, B chain of 29 amino acids” the “peri-infarct bFGF staining” value ([1]; 7 and 21 days, vs vehicle-treated hearts, blinded scoring) was “more intense”, the “intensity of VEGF staining” value ([1]; relaxin vs vehicle-treated hearts) was “No differences in intensity” and the 3H-thymidine uptake [2] was “did not alter”.
